Reference: ChEMBL document CHEMBL5380800, “Discovery of Small-Molecule Autophagy Inhibitors by Disrupting the Protein-Protein Interactions Involving Autophagy-Related 5” (J Med Chem, 2023)
The source made the active and inactive calls. The rule behind the calls is not given here.

Assays:
[1] = Inhibition of ATG5-TECAIR (unknown origin) protein protein interaction expressed in Escherichia coli BL21 (DE3) by HTRF method; design: species or system Homo sapiens
[2] = Inhibition of ATG5-ATG16L1 (unknown origin) protein protein interaction expressed in Escherichia coli BL21 (DE3) by HTRF method; design: species or system Homo sapiens
[3] = system: COS-7; assay: Inhibition of autophagy in African green monkey COS-7 cells at 20 uM by flow cytometry analysis relative to control; format: functional; conditions: Chlorocebus aethiops
[4] = system: COS-7; assay: Inhibition of autophagy in African green monkey COS-7 cells assessed as effect on LC3 level at upto 40 uM by flow cytometry analysis; format: functional, cell-based; conditions: Chlorocebus aethiops

Row | Structure (SMILES) | IC50 ([1]; read-out: IC50) [µM] | IC50 ([2]; read-out: IC50) [µM] | IC50 [1] | IC50 [2] | inhibition at 20 µM [3] [%] | inhibition [4]
1 | COC(=O)CCCN1C(=O)/C(=C/c2ccc(-c3ccc([N+](=O)[O-])cc3)o2)C=C1c1ccccc1 |  |  | Not Active | Not Active | 74.5 | 
2 | NC(=O)c1ccc(-c2ccc(/C=C3\C=C(c4ccccc4)N(Cc4ccc(C(=O)O)cc4)C3=O)o2)cc1 | > 33 | > 33 |  |  | 38.9 | 
3 | CC1=NN(c2ccc(C(=O)O)cc2)C(=O)C1Cc1ccc(-c2cc(C)c(C)cc2[N+](=O)[O-])o1 (configuration not stated) | > 33 | > 33 |  |  |  | 
4 | O=C1/C(=C/c2ccc(-c3ccc([N+](=O)[O-])cc3)o2)C=C(c2ccccc2)N1Cc1ccccc1Br |  |  |  |  | 82.5 | 
5 | CCN(CC)CCCC(C)Nc1ccnc2cc(Cl)ccc12 (configuration not stated) [CHLOROQUINE] | 28 | 37 |  |  |  | 
6 | CS(=O)(=O)c1ccc(-c2ccc(/C=C3\C=C(c4ccccc4)N(Cc4ccc(C(=O)O)cc4)C3=O)o2)cc1 | > 33 |  |  | Not Active | 53.7 | 
7 | CC1=NN(c2ccc(C(=O)O)cc2)C(=O)/C1=C\c1ccc(-c2cccc([N+](=O)[O-])c2)s1 | 23 | 11.2 |  |  |  | 
8 | Cn1cnc(N)c2ncnc1-2 |  |  |  |  |  | inactive
9 | CC1=NN(c2ccc(C(=O)O)cc2)C(=O)C1Cc1ccc(-c2ccc([N+](=O)[O-])cc2)s1 (configuration not stated) | > 33 | > 33 |  |  |  | 
10 | Cc1cc(-c2ccc(/C=C3\C(=O)N(c4ccc(C(=O)O)cc4)N=C3C3CC3)s2)c([N+](=O)[O-])cc1C | > 33 | 22.3 |  |  |  | 
11 | O=C(O)CCN1C(=O)/C(=C/c2cc([N+](=O)[O-])ccc2OCc2ccccc2Cl)SC1=S | 26 | 16 |  |  |  | 
12 | NC(=O)c1cccc(-c2ccc(/C=C3\C=C(c4ccccc4)N(Cc4ccc(C(=O)O)cc4)C3=O)o2)c1 | > 33 |  |  | Not Active | 8.3 | 
13 | O=C(O)c1ccc(N2C(=O)/C(=C/c3ccc(-c4ccc(O)cc4)o3)C=C2c2ccccc2)cc1 | > 33 | > 33 |  |  | 97.1 | 
14 | CC1=NN(c2ccccc2)C(=O)/C1=C\c1ccc(-c2cc(C)c(C)cc2[N+](=O)[O-])o1 | > 33 |  |  | Not Active |  | 
15 | CC1=NN(c2ccc(C(=O)O)cc2)C(=O)C1Cc1ccc(-c2cc(C)c(C)cc2[N+](=O)[O-])s1 (configuration not stated) | > 33 |  |  | Not Active |  | 
16 | O=C1/C(=C/c2ccc(-c3ccc([N+](=O)[O-])cc3)o2)C=C(c2ccccc2)N1Cc1ccc(C(F)(F)F)cc1 |  |  | Not Active | Not Active | 87.7 | 
17 | O=C(O)c1cccc(CN2C(=O)/C(=C/c3ccc(-c4ccc([N+](=O)[O-])cc4)o3)C=C2c2ccccc2)c1 | 21.3 | > 33 |  |  | 8.1 | 
18 | N#Cc1ccc(-c2ccc(/C=C3\C=C(c4ccccc4)N(c4ccc(C(=O)O)cc4)C3=O)s2)cc1 |  |  | Not Active | Not Active | 93.9 | 

More lines, main results first:

Row | IC50 ([1]; read-out: IC50) [µM] | IC50 ([2]; read-out: IC50) [µM] | IC50 [1] | IC50 [2] | Structure (SMILES) | inhibition at 20 µM [3] [%] | inhibition [4]
19 | 14.9 | 27.4 |  |  | CC(=O)c1cccc(-c2ccc(/C=C3\C=C(c4ccccc4)N(Cc4ccc(C(=O)O)cc4)C3=O)o2)c1 |  | 
20 | 11.9 | 11.6 |  |  | CC1=NN(c2ccc(C(=O)O)cc2)C(=O)/C1=C\c1ccc(-c2cc(C)c(C)cc2[N+](=O)[O-])s1 |  | 
21 | 19.2 | > 33 |  |  | O=C(O)CCCCN1C(=O)/C(=C/c2ccc(-c3ccc([N+](=O)[O-])cc3)o2)C=C1c1ccccc1 | 14.6 | 
22 | 10 | 12 |  |  | O=C(O)c1ccc(N2C(=O)/C(=C/c3ccc(-c4ccc(O)cc4)s3)C=C2c2ccccc2)cc1 | 98.8 | 
23 | 12 | 17 |  |  | O=C(O)c1ccc(N2C(=O)/C(=C/c3ccc(-c4ccc5nonc5c4)o3)C=C2c2ccccc2)cc1 | 94.7 | 
24 | 6.08 | 5.24 |  |  | CC1=NN(c2ccc(C(=O)O)cc2)C(=O)/C1=C\c1ccc(-c2ccc([N+](=O)[O-])cc2)s1 |  | 
25 | 16.3 | 26.9 |  |  | CC(=O)c1ccc(-c2ccc(/C=C3\C=C(c4ccccc4)N(Cc4ccc(C(=O)O)cc4)C3=O)o2)cc1 | 14.6 | 
26 | 17.2 | > 100 |  |  | O=C(O)CCN1C(=O)/C(=C/c2ccc(-c3ccc([N+](=O)[O-])cc3)o2)C=C1c1ccccc1 | 21.4 | 
27 | 12 | 12.8 |  |  | CC(=O)Nc1ccc(-c2ccc(/C=C3\C=C(c4ccccc4)N(Cc4ccc(C(=O)O)cc4)C3=O)o2)cc1 | 5.02 | 
28 | 19 | > 33 |  |  | O=C(O)c1ccc(N2C(=O)/C(=C/c3ccc(-c4ccc(Br)cc4)o3)C=C2c2ccccc2)cc1 | 97.3 | 
29 | 3.68 | 2.29 |  |  | O=C(O)c1ccc(CN2C(=O)/C(=C/c3ccc(-c4ccc([N+](=O)[O-])cc4)o3)C=C2c2ccccc2)cc1 | 5.88 | 
